Experimental data: patent publication US8871900B2, “Fibroblast growth factor (FGF) analogs and uses thereof” (University of Rochester, priority 2008, dated 2014)
Peptide text beside a SMILES is read from it.

How the values were obtained:
[1] = test system: GI Na transport from mucosa to serosa; assay: Electrolyte transport assay with 22Na flux (Ussing chamber); design: species or system mouse; settings: after IR
Experimental: FGF-P improves GI function: The absorption of Na coupling with nutrition and blocking of pathogen invasion are the basic function of GI. […] To pin down the mechanism in cell/tissue level, the electrolyte transport assay with ^22Na flux was carried with Ussing chamber. […] Similarly, a “Dilution Potential” experiment was carried out and Goldman-Hodgkin-Katz (GHK) Voltage Equation used to determine relative paracellular permeability.

BM cells = assay: 3H-TdR incorporation of normal and irradiated (0.5 Gy) BM cells; format: cell-based, mouse
Experimental: To determine if BM cells damaged by IR still responded to FGF-P, cells were plated in 96 round-bottom wells with serum-free ultraDoma-PF media and equally divided into two parts; one was not irradiated as control, and the other was irradiated with 0.5 Gy. They were then treated with equal amount of test agents within 1 hour post-IR. The following day, 0.2 uCi/well of ^3H-TdR was added and they were further cultured for 4 days before harvesting with a 96 well automatic harvester. […] There was no response to EPO.

[2] = test system: FGFR on AsPC-1 pancreatic cancer epithelial cells; assay: Cell surface binding of biotin-FGF-P, imaging flow cytometry (Amnis Imagestream)
Experimental: Three preliminary experiments were carried out using FGF-P in vitro to confirm its activity. First, the biotin conjugated FGF-P was used as a tool to examine for cell surface binding. AsPC-1 pancreatic cancer epithelial cells are known to have high levels of FGFR and were used for this study. ASPC1 cells were incubated with 1 μg/ml of biotin-FGF-P and then labeled with streptavidin-FITC. The cells were then analyzed using an imaging flow cytometer (Amnis Imagestream). This device can image each cell as it passes through the laser, it can then sort cells according to both staining and morphological characteristics.
These clusters can be counted thus allowing for measurement of relative binding coefficients. To test the feasibility of binding coefficient measurement, competition experiments were performed. Free FGF-P (30 ug/ml) was added to cells for 20 min and then the biotin-FGF-P (1 μg/mL) was added. One hour later, the streptavidin-FITC was added and analyzed by flow cytometry. […] In a third test, a bioassay was performed. […]
Three preliminary experiments were carried out using FGF-P in vitro to confirm its activity. […] The cells were then analyzed using an imaging flow cytometer (Amnis Imagestream). […] These clusters were counted, allowing for measurement of relative binding coefficients. […] One hour later, streptavidin-FITC was added and analyzed by flow cytometry. […]

[3] = test system: mice exposed to sub-TBI (GI syndrome); assay: Survival after sub-TBI (GI syndrome / AGS model); format: in vivo, mouse (Balb/c, C57BL/6, C3H/HeN)
From the text: A sub-TBI (total body irradiation) model was created, in which one leg of mouse is shielded from the direct radiation field. With this system, 8.5 Gy can be delivered to Balb/c mice without BM deaths (defined as deaths that occur between 10 and 30 days). When sub-TBI dose was increased to 9 Gy, half the irradiated mice die, and at 10.5 Gy, 66-100% mice died within 5-7 days. Pathologically these mice have devastating gut damage. In our GI (sub-TBI) model, the LD50/7 for Balb/c mice (6-8 week old from NCI) was 8.9-9.1 Gy. Using this GI model, the mitigation effect of FGF-P on the GI syndrome was tested. FGF-P (2 mg/kg) was given im 5-10 minutes after IR and continued once a day for 3-5 consecutive days. Each animal experiment had its own vehicle mock treatment group as control.
When the sub-TBI dose is raised to 10.5 or 11 Gy, 100% of the untreated control mice died of GI syndrome, while 33-67% of mice treated with FGF-P survived 3.5 months, FIGS. 2B and 2C). When the IR dose was raised to 12 Gy, all control animals died and 17% of FGF-P treated mice survived (FIG. 2D). […] Additionally, many of the animals that do die, do so later than mice not treated with FGF-P.
Native FGF-2 has a mouse strain dependent response profile. Most strains enjoy a benefit, but responses in C57 mice have been unimpressive. To determine if the agent works in mice with different genomic backgrounds, FGF-P (2 mg/kg) was given to C57BL/6 mice 10 min after the mice were exposed to 16 Gy sub-TBI. […] A third strain of mouse, C3H/HeN (LD50/7 about 12 Gy), was also studied. At 12.5 Gy sub-TBI, 33% of control mice survived while 50% of mice treated with FGF-P survived. At 13.5 Gy, all the control mice died within 7 days, while 50% of FGF-P treated mice survived (FIG. 3B). Thus unlike native FGF the bioavailability or bioeffect of FGF-P seems to be strain independent.

[4] = Toxicity of FGF-P (LD50/14 experiments); format: in vivo, mouse (Balb/c)
Experimental: Standard LD50/14 experiments have been performed. Up to 400 mg/kg of FGF-P was injected into Balb/c mice. No obvious signs of illness were observed. […] Thus, even the maximum NOAEL (no observed adverse effect level) could not be found. […] This observation is not surprising since similar observations have been made previously with human FGF-2 in mice (9-14) Likewise, it has been shown that in various disease states the level of FGF in humans is commonly 100 times the normal baseline.
A useful mitigator can be effective even given 8-24 hours IR exposure because of the time required for distribution. Therefore, FGF-P given at 8 hour after 7.1 Gy IR was tested.

For `CC(C)C[C@H](NC(=O)[C@H](C)NC(=O)[C@@H](NC(=O)[C@H](Cc1ccc(O)cc1)NC(=O)[C@H](Cc1c[nH]c2ccccc12)NC(=O)[C@H](CO)NC(=O)[C@H](CO)NC(=O)[C@H](Cc1ccc(O)cc1)NC(=O)[C@H](CCCCN)NC(=O)[C@H](CCCNC(=N)N)NC(=O)[C@H](CO)NC(=O)[C@H](CCCNC(=N)N)NC(=O)[C@H](Cc1ccc(O)cc1)NC(=O)[C@@H](N)CS)C(C)C)C(=O)N[C@@H](CCCCN)C(=O)N[C@@H](CCCNC(=N)N)C(=O)N[C@@H](CS)C(=O)O` [FGF-P, CYRSRKYSSWYVALKRC] (H-CYRSRKYSSWYVALKRC-OH; N-terminus and C-terminus assumed), the “Na transport from mucosa to serosa” value [1] was “reversed”, the “response of irradiated BM cells” value (BM cells; 0.5 Gy, treated within 1 hour post-IR, 3H-TdR) was “in the same fashion as normal BM cells” and the order of responsiveness (BM cells; 3H-TdR incorporation, serum-free media) was “FGF-P (250-500 ng/ml)>native FGF2 (50 ng/ml), GM-CSF and TPO (100 ng/ml)”. The “dose dependence of stimulatory effect” value (BM cells; normal and 0.5 Gy irradiated BM cells) was “dose-dependent”, the cell surface binding ([2]; AsPC-1 cells, 1 μg/ml biotin-FGF-P, streptavidin-FITC) was “bound to the cell surface and causes the aggregation of FGFR” and the “competition with biotin-FGF-P for cell surface binding” value ([2]; free FGF-P 30 ug/ml for 20 min, then biotin-FGF-P 1 μg/mL) was “competed with biotin-FGF-P for cell surface binding”. For the same compound, the mice still alive ([3]; Balb/c, 10 Gy sub-TBI, at 4 months, FGF-P 2 mg/kg im 5-10 min after IR, daily 3-5 days) was 87%, the mice survived ([3]; Balb/c, 10.5 or 11 Gy sub-TBI, 3.5 months, FGF-P 2 mg/kg im) was 33-67% and the mice survived ([3]; Balb/c, 12 Gy sub-TBI, FGF-P 2 mg/kg im) was 17%. It also gave a mice survived ([3]; C3H/HeN, 12.5 Gy sub-TBI) of 50%, a mice survived ([3]; C3H/HeN, 13.5 Gy sub-TBI) of 50% and a mice still alive ([3]; C57BL/6, 16 Gy sub-TBI, at 1.5 months, FGF-P 2 mg/kg 10 min after IR) of 33%. The long-term survival ([3]; C57BL/6, 16 Gy sub-TBI, over 2.5 months) was 33%, the body weight ([4]; Balb/c mice, up to 400 mg/kg) was “body weight did not decrease” and the “dose tolerated well without any signs of sickness” value ([4]; mice) was “up to 4 gram/kg”. The NOAEL at 14 days ([4]; mouse, in vivo, Balb/c mice, LD50/14 experiments, read-out: injected dose with no obvious signs of illness (maximum NOAEL could not be found)) was at most 400 mg/kg.
